These results are taken from article PMC10590756, “Glutarate regulates T cell metabolism and anti-tumour immunity” (Nature Metabolism, 2023).

Data set [1] deals with human CD8^+ T cells. Nature of the data set: Isotope tracing of ^13C5-labelled DEG and intracellular glutarate by LC-tandem MS. It is filed as in vitro ADME. The procedure:
To affirm that exogenous administration of DEG leads to increased intracellular glutarate levels, we performed isotope tracing of human CD8^+ T cells treated with ^13C5-labelled DEG.
Cells were counted to determine viable cell numbers (Fig. 1f,h,i and Extended Data Fig. g,h,k). A total of 0.5–2 × 10^6 viable cells were collected, washed with cold PBS and metabolic activity was quenched by freezing samples in dry ice and ethanol, and stored at −80 °C. Metabolites were extracted by adding 150 μl ice-cold 1:1 (vol/vol) methanol/water (containing 1 mM N-cyclohexyl-2-aminoethanesulfonic acid (CHES) as an internal standard) to the cell pellets; samples were transferred to a chilled microcentrifuge tube containing 150 μl chloroform and […] (750 μl total in 3:1:1 vol/vol methanol/water/chloroform). Samples were sonicated in a water bath for 8 min at 4 °C, and centrifuged (13,000g) for 10 min at 4 °C. The supernatant containing the extract was transferred to a new tube for evaporation using TurboVap LV (Biotage), resuspended in 3:3:1 (vol/vol/vol) methanol/water/chloroform (350 μl total) to phase-separate polar metabolites from apolar metabolites and centrifuged. The aqueous phase was transferred to a new tube for evaporation using TurboVap LV, washed with 60 μl methanol and dried again. Evaporated extracts were dissolved in 100 µl MeOH–50% water, before injection on the machine. Isotopically labelled glutarates were determined by liquid chromatography (LC)–tandem mass spectrometry (tandem MS) on a Waters ACQUITY UPLC system coupled to a Xevo-TQ-XS mass spectrometer. […] The column was subsequently washed in 75% A for 2.5 min and re-equilibrated at initial conditions for 3 min. MS analyses were performed in multiple reaction monitoring (MRM) mode, with positive electrospray ionization (ESI) from minute 0 – 1.4 and negative electrospray ionization (ESI) from minute 1.4 to minute 4.7. Positive ESI was conducted according to the following parameters: capillary potential 3 kV, source offset 30 V, cone voltage 15 V, source temperature 150 °C, desolvation temperature 600 °C, cone gas flow 150 l h^−1, desolvation gas flow, 1,000 l h^−1, nebulizer 7 bar and collision gas flow 0.17 ml min^−1. Negative ESI was operated under the same conditions but with a capillary potential set to 2 kV and a cone voltage set to 20 V. Acquisition was performed using MRM with the mass transitions and parameters illustrated in Supplementary Table 4. […]
Cells were counted to determine the viable cell numbers (Extended Data Fig. 1i,n). […]
Glutarate was determined by LC–tandem MS on a Waters ACQUITY UPLC system coupled to a Xevo-TQ-S mass spectrometer (Waters). […]

Data set [2] concerns CD8^+ T cells. Nature of the data set: Seahorse analysis of ECAR and OCR (GST, MST, fuel flex test). Type of data set: cell-based, human. The procedure: To explore further the metabolic consequences of this observed glutarate-induced reduction in PDHc activity, we performed a glycolysis stress test (GST). Acute effects were determined by treating CD8^+ T cells with DEG for 30 min while plated in the Seahorse XF Analyzer. Chronic effects were determined by performing a standard GST in CD8^+ T cells that had been cultured with DEG for 7 days before assay.
To better understand the consequences of providing glutarate as a fuel for mitochondrial oxidation, we measured cellular oxygen consumption while inhibiting, in different combinations, fatty acid, glucose and glutamine oxidation, the three main fuel sources for mitochondrial oxidation (Extended Data Fig. 4i). This was achieved via injection of etomoxir, UK5099 and Bis-2-(5-phenylacetamido-1,3,4-thiadiazol-2-yl)ethyl sulphide (BPTES), respectively, in cells plated in a Seahorse XF Analyzer.
A Seahorse XFe bioanalyzer was used to measure the OCR and ECAR. A total of 1.5 × 10^5 CD8^+ T cells per well were spun onto poly-D-lysine-coated (catalogue no. P7280, Sigma-Aldrich) Seahorse plates and preincubated at 37 °C for a minimum of 30 min in the absence of CO2 in Seahorse XF RPMI medium, pH 7.4 (10376-100, Agilent), supplemented with 10 mM glucose (catalogue no. A2494001, Thermo Fisher Scientific) and 2 mM glutamine (catalogue no. 25030081, Thermo Fisher Scientific). A minimum of five technical replicates per biological replicate were used. For the MST and GST, OCR and ECAR were measured under basal conditions and after the addition of the following: 750 µM DEG (catalogue no. QB-1473, Combi-block), 0.05% DMSO, 1 μM oligomycin (catalogue no. 75351, Sigma-Aldrich), 1.5 μM FCCP (catalogue no. C2920, Sigma-Aldrich), 100 nM rotenone + 1 μM antimycin A (catalogue nos. R8875 and A8674, Sigma-Aldrich), 10 mM glucose and 50 mM 2-DG (catalogue no. B1048-100, BioVision) as indicated. To assess mitochondrial fuel use, OCR was measured subsequent to the addition of the following drugs in different combinations as indicated: 3 µM BPTES (catalogue no. SML0601, Sigma-Aldrich), 2 µM UK-5099 (catalogue no. PZ0160, Sigma-Aldrich) and 4 µM etomoxir (catalogue no. E1905, Sigma-Aldrich). Assay parameters were as follows: 3 min mix, no wait, 3 min measurement, repeated 3–5 times at basal and after each addition. Measurements were taken using a 96-well Extracellular Flux Analyzer (Seahorse Bioscience).

Details of data set [3]: method as in PMID 29989593. The following applies: approved by the European Union for use as a food additive; cited from earlier work.
The mark [4] stands for this setting: fuel flex test, 500 µM DEG, 7 days, other fuel sources limited.

Regarding `CCOC(=O)CCCC(=O)OCC` [DEG, Diethyl glutarate], the “time of conversion of DEG to glutarate intracellularly” value in data set [1] is at most 15 min. The “increase of measured intracellular glutarate concentrations” value in data set [1] (500 µM DEG, 7 days) is “approximately twofold”. For the same compound, the “intracellular DEG” value in data set [1] (15 min after administration of the labelled compound) was “could not be detected”. Further, the “conversion of DEG into intracellular glutarate after uptake” value in data set [1] (^13C5-labelled DEG) is “very rapidly converted into intracellular glutarate”. Moreover, the “maximal OCR, cells treated 7 days with DEG” value in data set [2] (500 µM DEG, 7 days) was “reduced maximal OCR”. In addition, the “basal oxygen consumption rates (OCRs)” value in data set [2] (500 µM DEG, acute and chronic, with or without glucose and glutamine) was “either maintained or increased”. The “basal extracellular acidification rate (ECAR)” value in data set [2] (DEG 30 min (acute) or 7 days (chronic)) was “increases”. Moreover, the “glycolytic rate (GST), acute exposure” value in data set [2] (DEG 30 min in the Seahorse XF Analyzer) is “increased glycolytic rate”. Moreover, the “effect of FCCP on OCR (MST), cells treated acutely with DEG” value in data set [2] (acute DEG) is “did not have an effect”. Besides, the “glycolytic rate (GST), chronic exposure” value in data set [2] (cultured with DEG for 7 days) is “increased glycolytic rate”. In data set [2] (fuel flex test, 500 µM DEG, 7 days), the “dependence on fatty acid, glucose and glutamine oxidation” value is recorded as “not more dependent”. Further, in data set [2] (setting [4]), the “capacity to oxidize fatty acids” value is on record as “increased capacity” and the “capacity to oxidize glucose” value is given as “increased capacity”. The toxicity result in data set [3] is reported as “non-toxic”.
